Assay results: PubChem BioAssay AID248 (DTP/NCI, 2004)
“And” between values parts separate entries of the source, which are not always exact repeats. Equal values may be shown once. Inconclusive results and toxic doses are left out. Cut-off read from the data, not from the text of the source: active = T/C of 150% or more; inactive = T/C below 125%.

System: L1210 leukemia ip in BDF1 mice, survival T/C
Assay: NCI In Vivo Anticancer Drug Screen. Data for tumor model L1210 Leukemia (intraperitoneal) in B6D2F1 (BDF1) mice
Conditions: endpoint: mean survival time, higher = longer survival
Procedure, shortened: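 In this screen, tumor-bearing mice given compound are compared to those given vehicle, and their survival values are reported as a treated-to-control quotient.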

[1] = dose: 100.0 mg/kg/injection, schedule: Q04DX003 (ip), vehicle: saline with Tween-80
[2] = dose: 200.0 mg/kg/injection, schedule: Q01DX009 (ip), vehicle: saline with Tween-80
[3] = dose: 200.0 mg/kg/injection, schedule: Q04DX003 (ip), vehicle: saline with Tween-80
[4] = dose: 400.0 mg/kg/injection, schedule: Q01DX009 (ip), vehicle: saline with Tween-80
[5] = dose: 400.0 mg/kg/injection, schedule: Q04DX003 (ip), vehicle: saline with Tween-80
[6] = dose: 100.0 mg/kg/injection, schedule: Q01DX001 (ip), vehicle: saline
[7] = dose: 200.0 mg/kg/injection, schedule: Q01DX001 (ip), vehicle: saline
[8] = dose: 400.0 mg/kg/injection, schedule: Q01DX001 (ip), vehicle: saline
[9] = dose: 100.0 mg/kg/injection, schedule: Q04DX003 (ip), vehicle: alcohol
[10] = dose: 200.0 mg/kg/injection, schedule: Q04DX003 (ip), vehicle: alcohol
[11] = dose: 100.0 mg/kg/injection, schedule: Q04DX003 (ip), vehicle: saline
[12] = dose: 200.0 mg/kg/injection, schedule: Q04DX003 (ip), vehicle: saline
[13] = dose: 400.0 mg/kg/injection, schedule: Q04DX003 (ip), vehicle: saline
[14] = dose: 100.0 mg/kg/injection, schedule: Q01DX001 (ip), vehicle: saline with Tween-80
[15] = dose: 200.0 mg/kg/injection, schedule: Q01DX001 (ip), vehicle: saline with Tween-80
[16] = dose: 400.0 mg/kg/injection, schedule: Q01DX001 (ip), vehicle: saline with Tween-80

Measured: T/C

CCCCCCCNc1ccc(S(=O)(=O)c2ccc(NCCCCCCC)c([N+](=O)[O-])c2)cc1[N+](=O)[O-]
inactive: dose: 25.0 mg/kg/injection, schedule: Q01DX009 (ip), vehicle: DMSO 94 % of control | dose: 50.0 mg/kg/injection, schedule: Q01DX009 (ip), vehicle: DMSO 98 % of control | dose: 100.0 mg/kg/injection, schedule: Q01DX005 (ip), vehicle: DMSO 90 % of control | dose: 100.0 mg/kg/injection, schedule: Q01DX009 (ip), vehicle: DMSO 94 % of control and 98 % of control | dose: 100.0 mg/kg/injection, schedule: Q04DX002 (ip), vehicle: DMSO 100 % of control | dose: 200.0 mg/kg/injection, schedule: Q01DX009 (ip), vehicle: DMSO 101 % of control | dose: 200.0 mg/kg/injection, schedule: Q04DX002 (ip), vehicle: DMSO 88 % of control | dose: 400.0 mg/kg/injection, schedule: Q01DX005 (ip), vehicle: DMSO 90 % of control | dose: 400.0 mg/kg/injection, schedule: Q01DX009 (ip), vehicle: DMSO 100 % of control | dose: 400.0 mg/kg/injection, schedule: Q04DX002 (ip), vehicle: DMSO 96 % of control

CC(=O)NCC(=O)c1ccc(Cl)cc1
inactive: dose: 100.0 mg/kg/injection, schedule: Q01DX009 (ip), vehicle: saline with Tween-80 103 % of control | [1] 102 % of control | [2] 104 % of control | [3] 102 % of control | [4] 121 % of control | [5] 96 % of control

Cc1csc2ccc([N+](=O)[O-])cc12
inactive: [6] 106 % of control | [7] 101 % of control | [8] 101 % of control

O=C(Nc1ccc(O)cc1)Nc1ccc(O)cc1
inactive: dose: 37.5 mg/kg/injection, schedule: Q01DX Z (ip), vehicle: carboxymethylcellulose (CMC) 103 % of control | dose: 53.0 mg/kg/injection, schedule: Q01DX Z (ip), vehicle: carboxymethylcellulose (CMC) 92 % of control | dose: 53.0 mg/kg/injection, schedule: Q01DX Z (ip), vehicle: other 105 % of control | dose: 75.0 mg/kg/injection, schedule: Q01DX Z (ip), vehicle: carboxymethylcellulose (CMC) 115 % of control | dose: 80.0 mg/kg/injection, schedule: Q01DX Z (ip), vehicle: carboxymethylcellulose (CMC) 93 % of control | dose: 80.0 mg/kg/injection, schedule: Q01DX Z (ip), vehicle: other 102 % of control | dose: 120.0 mg/kg/injection, schedule: Q01DX Z (ip), vehicle: carboxymethylcellulose (CMC) 92 % of control | dose: 120.0 mg/kg/injection, schedule: Q01DX Z (ip), vehicle: other 103 % of control | dose: 150.0 mg/kg/injection, schedule: Q01DX Z (ip), vehicle: carboxymethylcellulose (CMC) 103 % of control | dose: 180.0 mg/kg/injection, schedule: Q01DX Z (ip), vehicle: carboxymethylcellulose (CMC) 89 % of control | dose: 180.0 mg/kg/injection, schedule: Q01DX Z (ip), vehicle: other 102 % of control | dose: 270.0 mg/kg/injection, schedule: Q01DX Z (ip), vehicle: other 103 % of control | dose: 300.0 mg/kg/injection, schedule: Q01DX Z (ip), vehicle: carboxymethylcellulose (CMC) 98 % of control | dose: 404.0 mg/kg/injection, schedule: Q01DX Z (ip), vehicle: other 105 % of control

CCOC(=O)C1CCCCCC1=O (stereo not drawn)
inactive: dose: 50.0 mg/kg/injection, schedule: Q01DX009 (ip), vehicle: saline 110 % of control | dose: 100.0 mg/kg/injection, schedule: Q01DX009 (ip), vehicle: saline 98 % of control | [9] 102 % of control | dose: 200.0 mg/kg/injection, schedule: Q01DX009 (ip), vehicle: saline 95 % of control | [10] 103 % of control | dose: 400.0 mg/kg/injection, schedule: Q04DX003 (ip), vehicle: alcohol 100 % of control

CN(C)C(=O)C1C2CC3OC(=O)C1C3C2 (stereo not drawn)
inactive: [11] 100 % of control and 104 % of control | [12] 94 % of control and 108 % of control | [13] 100 % of control and 104 % of control

O=C(/C=C/c1ccccc1)NC(=S)Nc1ccccc1F
inactive: dose: 12.5 mg/kg/injection, schedule: Q01DX009 (ip), vehicle: saline with Tween-80 106 % of control and 88 % of control | dose: 25.0 mg/kg/injection, schedule: Q01DX009 (ip), vehicle: saline with Tween-80 95 % of control and 107 % of control | dose: 50.0 mg/kg/injection, schedule: Q01DX009 (ip), vehicle: saline with Tween-80 97 % of control | [14] 92 % of control | dose: 100.0 mg/kg/injection, schedule: Q04DX002 (ip), vehicle: alcohol 95 % of control and 90 % of control | [1] 94 % of control | [15] 90 % of control | [2] 89 % of control | dose: 200.0 mg/kg/injection, schedule: Q04DX002 (ip), vehicle: alcohol 101 % of control | [3] 87 % of control | [16] 87 % of control | [4] 86 % of control | dose: 400.0 mg/kg/injection, schedule: Q04DX002 (ip), vehicle: alcohol 102 % of control | [5] 86 % of control

CCC[n+]1cccc(C#N)c1
inactive: dose: 37.5 mg/kg/injection, schedule: Q04DX003 (ip), vehicle: saline 97 % of control | dose: 75.0 mg/kg/injection, schedule: Q01DX001 (ip), vehicle: saline 94 % of control | dose: 75.0 mg/kg/injection, schedule: Q04DX003 (ip), vehicle: saline 100 % of control | dose: 150.0 mg/kg/injection, schedule: Q01DX001 (ip), vehicle: saline 103 % of control

O=C(OCc1ccccc1CN1CCCC1)c1ccc(Cl)cc1
inactive: dose: 100.0 mg/kg/injection, schedule: Q04DX002 (ip), vehicle: Klucel (hydroxypropylcellulose) (HPC) 111 % of control | dose: 200.0 mg/kg/injection, schedule: Q04DX002 (ip), vehicle: Klucel (hydroxypropylcellulose) (HPC) 96 % of control | dose: 400.0 mg/kg/injection, schedule: Q04DX002 (ip), vehicle: Klucel (hydroxypropylcellulose) (HPC) 111 % of control

COC(=O)c1cc(=O)c2c(Cl)cccc2[nH]1
inactive: [11] 96 % of control | [12] 110 % of control | [13] 95 % of control

C#CC(O)(c1ccccc1)c1ccccc1
inactive: [6] 103 % of control | [7] 107 % of control | [8] 100 % of control

CC(C)C1C(=O)N2CCCC2C2(O)OC(C(=O)NCCc3c[nH]c4ccccc34)(C(C)C)C(=O)N12 (stereo not drawn)
inactive: dose: 6.25 mg/kg/injection, schedule: Q04DX003 (ip), vehicle: saline with Tween-80 98 % of control | dose: 12.5 mg/kg/injection, schedule: Q04DX003 (ip), vehicle: saline with Tween-80 111 % of control | dose: 25.0 mg/kg/injection, schedule: Q04DX003 (ip), vehicle: alcohol 98 % of control | dose: 25.0 mg/kg/injection, schedule: Q04DX003 (ip), vehicle: saline with Tween-80 101 % of control | dose: 50.0 mg/kg/injection, schedule: Q04DX003 (ip), vehicle: alcohol 105 % of control | dose: 50.0 mg/kg/injection, schedule: Q04DX003 (ip), vehicle: saline with Tween-80 98 % of control | [9] 98 % of control | [10] 98 % of control

N#Cc1ccc(NC(=O)NNC(=O)CCCC(=O)NNC(=O)Nc2ccc(C#N)cc2)cc1
inactive: dose: 50.0 mg/kg/injection, schedule: Q01DX001 (ip), vehicle: saline 95 % of control | [6] 97 % of control | [7] 101 % of control | [8] 95 % of control

NC1CCC(C(=O)O)NC1 (stereo not drawn)
inactive: [11] 104 % of control | [12] 107 % of control | [13] 109 % of control

CCCCCCCCCCCC(CCCC)CCCC
inactive: [14] 93 % of control | [15] 104 % of control | [16] 101 % of control

O=C1COc2ccc(Cl)cc2N1
inactive: dose: 100.0 mg/kg/injection, schedule: Q01DX009 (ip), vehicle: Klucel (hydroxypropylcellulose) (HPC) 100 % of control | dose: 200.0 mg/kg/injection, schedule: Q01DX009 (ip), vehicle: Klucel (hydroxypropylcellulose) (HPC) 97 % of control | dose: 400.0 mg/kg/injection, schedule: Q01DX009 (ip), vehicle: Klucel (hydroxypropylcellulose) (HPC) 119 % of control

Cc1cc(N=NC(=N)N)c(C(C)C)cc1NN=C(N)N
inactive: dose: 60.0 mg/kg/injection, schedule: Q01DX Z (oral), vehicle: carboxymethylcellulose (CMC) 106 % of control | dose: 120.0 mg/kg/injection, schedule: Q01DX Z (oral), vehicle: carboxymethylcellulose (CMC) 100 % of control | dose: 480.0 mg/kg/injection, schedule: Q01DX Z (oral), vehicle: carboxymethylcellulose (CMC) 102 % of control
